Patent US20230293524A1, “OTIC FORMULATIONS FOR DRUG-INDUCED OTOTOXICITY” (Spiral Therapeutics Inc, priority 2019, published 2023)
Like-named read-outs stand apart in the source and are kept apart here.

Legend:
[1] = system: outer hair cells (OHCs) and inner hair cells (IHCs); assay: Cochlear explant model: hair cell protection against cisplatin; format: cell-based, Sprague-Dawley rats; conditions: for EC100: Rattus norvegicus, read-out: Ex-vivo Efficacy Conc. for complete protection of hair cells (uM); for protection of hair cells against cisplatin: 1.5 hour pretreatment followed by co-treatment at different concentrations with 10 μM cisplatin
From the text: (§1) For hair cell and spiral ganglion assessment, postnatal Sprague-Dawley rats (P2-P4) of both sexes are anesthetized with isoflurane and decapitated. Temporal bones are removed and transferred to a cell culture dish with ice-cold Ca^2+/Mg^2+-containing phosphate-buffered saline (PBS; Invitrogen) or cold HBSS medium enriched with glucose. Under microscopic visualization, the cochlear capsules are carefully removed from the temporal bone using forceps and transferred to a new cell culture dish containing ice-cold PBS. The cochleae are then dissected from the cochlear capsule using fine forceps. The stria vascularis is removed from the cochlear tissue and discarded. Dissected cochlear epithelia are transferred to permeable membrane inserts (Millicell organotypic culture plate inserts, Millipore) which are placed into 1 mL of culture media (Dulbecco's modified Eagle's medium (high glucose, Glutamax, 25 mM HEPES) with 10% fetal bovine serum, 1% N2 supplement and 10 units/ml penicillin) in a 6-well plate. Up to 4 cochleae are placed onto each membrane. Explants are placed in a humidified chamber with 5% CO2 at 37° C. for a minimum of 18 hours prior to treatment. Cultures are then pre-treated with test compounds and returned to the incubator for a period of 10 minutes to 48 hours.
(§2) Following the incubation period, cochlear samples are fixed in 4% paraformaldehyde for a minimum of 30 minutes after treatment then permeabilized in 0.5% Triton in PBS (PBST) for 1 hour, followed by overnight incubation at 4° C. in primary antibodies in 10% goat or donkey serum (Sigma). Samples are then rinsed in PBST 2 times for 10 minutes each then incubated in alexa-488 conjugated secondary antibodies for 2 hours at room temperature or overnight at 4° C. in 10% goat or donkey serum (Sigma). Samples are then rinsed 2 times in PBS then incubated in DAPI (1:3000) in PBS for 5 minutes prior to mounting on slides. To evaluate the otoprotective efficacy of the compounds, cochlear samples are immunostained using combination of antibodies generated against markers specific for hair cells (Myosin V1, Myosin VIIA, Parvalbumin, etc.), SGNs (TUJ1, Neurofilament, etc.), f-actin, cell death, cell stress, etc. as well as a nuclear stain to identify cell nuclei.
(§3) Immunostained samples are mounted on glass slides and imaged with an LSM880 laser scanning confocal microscope (Zeiss) or an Operetta high-content imager (Perkin Elmer). The entire explant is imaged for all antibody and nuclear labeling in a 3-dimensional X-Y-Z plane in which the Z-plane consists of a stack imaged at intervals of 0.5-5 μm. The total length of the organ of Corti in each explant is then determined and is divided into 4 equal length regions. Basal, middle and apical hair cells or SGNS are counted at the regions approximately 25%, 50% or 75% of the total cochlear length from the base, respectively. Hair cell survival is determined by counting the number of inner and outer hair cells at these three different regions (base, middle and apex) in each cochlear explant and determining the number of missing/dead hair cells per cochlear region. Hair cell counts are obtained by placing a 200 μm length scale bar parallel to the rows of hair cells at each region and manually counting the total number of outer hair cells (OHCs) and inner hair cells (IHCs) within the 200 μm. Similarly, to evaluate the health and survival of SGNs, the density of SGN fibers or soma is also determined per region by manual counting for same region selected for counting hair cells. Nuclear staining is analyzed to confirm the presence or absence of cell nuclei and to evaluate nuclear health. Image analysis and quantification is performed using Zeiss Zen Blue software, or Perkin Elmer Columbus software.
(§4) Neonatal (P2-P4) Sprague-Dawley rats were used for the experiments described here. Animals were euthanized following anesthesia using isoflurane. Rat cochleae were then dissected in cold HBSS medium enriched with glucose. […]

[2] = system: spiral ganglion neurons (SGNs); assay: Cochlear explant model: spiral ganglion neuron protection against cisplatin; format: cell-based, Sprague-Dawley rats; conditions: 1.5 hour pretreatment followed by co-treatment at different concentrations with 10 μM cisplatin
From the text: as §1, §2, §3, §4

[3] = Cisplatin binding, % bound
[4] = Cisplatin reaction kinetics by HPLC; conditions: 50 μM cisplatin + 50 μM of compound (API) in PBS, pH 7.4, 37° C.
Procedure: Reaction kinetics between Cisplatin and the compound of interest (nucleophile) were monitored by high performance liquid chromatography. Isocratic separation was achieved using a Waters Spherisorb C8 column (4×250 mm, 5 μm, 80 Å). The flow rate was set to 1.00 mL/min. The mobile phase consisted of 5 mM Sodium Octanesulfonate+5 mM Tetrabutyl Ammonium Hydrogen Sulfate+20 mM Potassium Dihydrogen Phosphate adjusted to pH 5.9. Detection was performed at a wavelength of 210 nm.
Reactions were conducted at equimolar concentrations in buffered aqueous media and held at 37° C. Rate constants (k) were determined by monitoring the disappearance of Cisplatin as a function of time.

[5] = Pharmacokinetic study after intratympanic administration; format: in vivo, rats
Procedure: Female rats (Charles River) weighing 200-300 g of approximately 12-16 weeks of age served as subjects (N=4 per group). Prior to any procedures, animals were anesthetized using a combination of xylazine (10 mg/kg), ketamine (50 mg/kg), and acepromazine (1 mg/kg) for up to an hour via the intraperitoneal route. If needed, an intraoperative booster was administered intraperitoneal representing a one-tenth of the original dose.
Intratympanic injection—Each animal was positioned so that the head was tilted at an angle to favor injection towards the round window niche. […] Formulations were delivered using a perfusion pump at the rate of 2 μL/sec. Contact with the round window membrane was maintained for 30 minutes by placing the animal in a recumbent position. During the procedure and until recovery, animals were placed on a temperature controlled (40° C.) heating pad until consciousness was regained at which time they were returned to the vivarium.
Perilymph sampling procedure—The skin behind the ear of anesthetized rats was shaved and disinfected with povidone-iodine. An incision was then made behind the ear, and muscles were carefully retracted from over the bulla. A hole was drilled through the bulla using a dental burr so that the middle ear was exposed and accessed. The cochlea and the round window membrane were visualized under a stereo surgical microscope. The basal turn of bulla was cleaned by using small cotton ball. A unique microhole was hand drilled through the bony shell of the cochlea (cochlear capsule) adjacent to the round window. Perilymph (about 2 μL) was then collected using a microcapillary inserted into the cochlear scala tympani. Perilymph samples were added to a vial containing 18 μL of acetonitrile/water, stored at −80° C. until analysis.
Cochlear epithelium sampling procedure—Under a dissection scope, the bulla was opened, and the cochlea was exposed by removing all surrounding muscles, blood vessels and bone tissues. Holding the bulla, the cochlear wall bony structure was removed working from the base to the apex of the cochlea, exposing the organ of Corti. The exposed cochlear epithelium was gently dabbed with cotton swab to remove excess of liquid from tissue, carefully transferred to labelled tube. Each 2-mL plastic tube that contained acid washed 2.8 mm stainless steel beads was pre-weighed. The tubes were reweighed after adding cochlea epithelium and weights were recorded. All cochlea epithelium samples were placed in dry ice immediately after collection and stored at −80° C. prior to analysis.
Plasma sampling procedure—Blood samples were collected by cardiac puncture into labeled micro-tubes, containing lithium heparin as anticoagulant. Plasma were immediately harvested from the blood by centrifugation and collection for supernatants. All plasma samples were stored at −80° C. prior to analysis.
Samples were extracted by protein precipitation, then vortexed and centrifuged. The supernatant was collected and diluted with two folds of water. A high-performance liquid chromatography system (Agilent 1200 series) with Waters Cortecs C18 Plus column (50*4.6 mm, 2.7 μm) were used. The flow rate was set at 0.700 mL/min. A gradient method with an analytical run time of 5 minutes was used. Mobile phase A consisted of 0.01% ammonium formate, 0.03% formic acid in water. Mobile phase B consisted of 0.01% ammonium formate, 0.03% formic acid in acetonitrile: methanol (70:30, v/v). The gradient began with 30% B, stepped to 70% B at 2.75 minutes and held for 1 minute and then stepped back to 30% B to re-equilibrate the column.
Ionizations and detection of analyte and internal standard were performed on a triple quadruple mass spectrometer, API 5500 Q-Trap equipped with Turbo IonSpray@, from SCIEX (Toronto, Canada). Electro spray ionization (ESI) mass spectra was operated in the positive ion mode. Carbutamide was used as the internal standard (IS). […]

[6] = Rat cisplatin IP PK study, total platinum by ICP-MS; format: in vivo; conditions: for Cmax: read-out: Cmax concentrations in perilymph and cochlear tissues
Procedure: Total platinum level in samples were analyzed by a qualified inductively coupled plasma mass spectrometric detection (ICP-MS) developed in QPS (Netherlands Lab). Ruthenium were used as internal standard. A flow injection analysis (FIA) method was used to using HPLC pump to introduce samples and internal standard into the systems but without HPLC column. The ICP-quadrupole-MS of Perkin Elmer Sciex Elan 6100 ICP-MS System equipped with a peristaltic pump, nebulizer, spray chamber, and quartz torch were used in platinum analyses.
Sample transport from the autosampler to the nebulizer was performed using a peristaltic pump. The instrument was cooled by using argon gas of 99.999% purity. Data were acquired and processed using the Analyst 1.6. The instrument settings of the ICP-MS had the following operating parameters: ICP radio frequency (RF) power, 1500 W; RF matching, 1.80 V; sampling depth, 8.0 mm; carrier gas, 0.90 L/min; makeup gas, 0.21 L/min; nebulizer pump, 0.10 rps; He gas, 4.5 mL/min; extract 1, 0.0 V; extract 2, −120.0 V; cell entrance, −30 V; cell exit, −30 V; QP bias, −16.0 V; Octp bias, −20.0 V.
The mass to charge ratio is determined by the detector. […] Electronic signals were compared to the standardized curve generated from ultra-high purity platinum samples and solvents. Accounting for dilutions, comparison of the sample signal to the standardized curve will allow for the determination of the original total platinum concentration.
Intraperitoneal injection—The lower right quadrant of the abdomen was shaved and disinfected with alcohol and then povidone iodine. Animals were placed in a supine position and the hind legs were lifted at a 40-degree angle in order to move the abdominal organs towards the diaphragm. A 1″ 23G needle or larger was inserted into the abdominal cavity, directed towards the animal's head, at a 15-20-degree angle and inserted approximately 5 mm. […] After removal of the syringe from the peritoneal cavity, triple antibiotic was placed on the injection site to help prevent infection. During the procedure and until recovery, animals were placed on a temperature controlled (40° C.) heating pad until consciousness was regained at which time they were returned to the vivarium.
Protocol: 3 animals per group at time points. Group A: 30 min, 1 hr, 2 hr, 6 hr, 1 day, 3 day, 7 day, 28 day. Group B: 30 min, 1 hr, 2 hr, 6 hr, 1 day, 3 day. Bioanalysis: Plasma, Perilymph, Cochlear epithelium, CSF. Bioanalytical Method: Total Platinum by ICP-MS.

[7] = intraperitoneal (IP) administration

Cisplatin Binding % bound (in 30 min) at 1:10 ratio [3]	Structure (SMILES)	EC100 [1]	protection of hair cells against cisplatin [1]	protection of spiral ganglion neurons against cisplatin [2]	k [4]	other results
	CSC[C@H]1O[C@@H](n2cnc3c(N)ncnc32)[C@H](O)[C@@H]1O [5-Deoxy-5-methylthioadenosine]					Ex-vivo Efficacy Conc. for complete protection of hair cells (uM) ([1]; ex vivo cochlear explants, cisplatin): No protection
	CC(=O)c1c[nH]c(=S)n(-c2ccc(C)cc2)c1=O [5-acetyl-3-(p-tolyl)-2-thiouracil]	500 µM				potency on HC protection ([1]; ex-vivo cochlear explants, comparison of thiouracils): lower potency
60%	Sc1ncnc2nc[nH]c12 [6-mercaptopurine]	50 to 100 µM	complete protection	near complete protection		
	COc1cc(=O)[nH]c(=S)[nH]1 [6-methoxy-2-thiouracil]	50 to 100 µM				
50%	Nc1nc2c(ncn2[C@H]2C[C@H](O)[C@@H](CO)O2)c(=S)[nH]1 [6-thio-2′-deoxy guanosine]	100 µM	complete protection	near complete protection		
80%	Nc1nc2nc[nH]c2c(=S)[nH]1 [6-thioguanine]	50 to 100 µM	complete protection	near complete protection		
	Nc1nc2c(ncn2[C@@H]2O[C@H](CO)[C@@H](O)[C@H]2O)c(=S)[nH]1 [6-thioguanosine]	50 to 100 µM	complete protection	near complete protection		
	O=c1cc[nH]c(=S)[nH]1 [Compound 2-thiouracil, 2-thiouracil]	50 to 100 µM			0.15 M⁻¹ s⁻¹	
40%	CSCC[C@@H](N)C(=O)O [D-methionine, reference compound]	10000 µM			0.07 M⁻¹ s⁻¹	In vivo PK in Cochlear Epithelium (24 h after dosing) [5]: ~200 ng/gm CE
	O=S(=O)(O)CCS [MESNA, reference compound]				0.05 M⁻¹ s⁻¹	
95%	CCCc1cc(=O)[nH]c(=S)[nH]1 [OMY-141, 6-propyl-2-thiouracil]	50 to 100 µM	complete protection		10.27 M⁻¹ s⁻¹	In vivo PK in Cochlear Epithelium (24 h after dosing) [5]: ~300 ng/gm CE; plasma exposure after IT injection ([5]; single IT injection): some plasma exposure; perilymph and cochlear epithelium exposure after IT injection ([5]; single IT injection, MCT and/or poloxamer formulation): good perilymph and cochlear epithelium exposure
	N.N.[Cl][Pt][Cl] [cisplatin]					Cmax concentrations in perilymph and cochlear tissues ([6]; dosed at 10 mg/kg IP): 700 to 750 ng/mL; Cmax ([6]; dosed at 10 mg/kg IP): 2300 to 2500 nM; Cmax concentrations in perilymph and cochlear tissues ([6]; dosed at 12 mg/kg IP): 700 to 900 ng/mL; Cmax ([6]; dosed at 12 mg/kg IP): 2300 to 3000 nM; time of peak cisplatin levels in cochlear tissues [6, 7]: 6 h; time of peak cisplatin levels in perilymph [6, 7]: ≤ 30 min
